From patent publication US6720330B2, “Somatostatin antagonists and agonists that act at the SST subtype 2 receptor” (Pfizer Inc., priority 2000, dated 2004)
Where no end group is shown, it is not given here.

Tested on: somatostatin receptor
Assay: Rat pituitary assay for somatostatin receptor antagonists (cAMP content of GH4C1 cells)
Assay type: cell-based
Settings: GH4C1 pituitary cell line; 100 nM VIP, 10 nM somatostatin 14

Compound	cAMP content of the GH4C1 cells
C[C@H](N)C(=O)NCC(=O)N[C@H]1CSSC[C@@H](C(=O)O)NC(=O)[C@H](CO)NC(=O)[C@H]([C@@H](C)O)NC(=O)[C@H](Cc2ccccc2)NC(=O)[C@H]([C@@H](C)O)NC(=O)[C@H](CCCCN)NC(=O)[C@H](Cc2c[nH]c3ccccc23)NC(=O)[C@H](Cc2ccccc2)NC(=O)[C@H](Cc2ccccc2)NC(=O)[C@H](CC(N)=O)NC(=O)[C@H](CCCCN)NC1=O [somatostatin, somatostatin 14]	partial inhibition
vasoactive intestinal peptide (HSDAVFTDNYTRLRKQMAVKKYLNSILN; ends and bridges not checked; UniProt P01282 125-152, looked up) [VIP, endogenous peptide that stimulates GH secretion]	increased cAMP content
